Experiments:
oat, wild [1] = assay: Test C postemergence; type: in vivo, Avena fatua; conditions: 10 days
Summary of the method: (§1)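 Visual injury ratings on a 0–100 scale (100 = complete control) were made against untreated controls 10 days after treatment in the greenhouse. Compounds, formulated with surfactant in non-phytotoxic solvent, were sprayed on soil preemergence or onto one- to two-leaf plants 2–10 cm tall postemergence.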

pigweed, palmer [2] = assay: Test C postemergence; type: in vivo, Amaranthus palmeri; conditions: 10 days
Summary of the method: as §1

barnyardgrass [3] = assay: Test C preemergence; type: in vivo, Echinochloa crusgalli; conditions: for Barnyardgrass plant response rating: preemergence; for Plant response rating, Barnyardgrass: Preemergence
Summary of the method: as §1

wheat [4] = assay: Test C postemergence; type: in vivo, Triticum aestivum; conditions: 10 days
Summary of the method: as §1

pigweed, palmer [5] = assay: Test C preemergence; type: in vivo, Amaranthus palmeri; conditions: for Pigweed, Palmer plant response rating: preemergence; for Plant response rating, Pigweed, Palmer: Preemergence
Summary of the method: as §1

green foxtail [6] = assay: Test C postemergence; type: in vivo, Setaria viridis; conditions: 10 days
Summary of the method: as §1

ducksalad = assay: Test D flooded paddy test; type: in vivo, Heteranthera limosa; conditions: 250 g ai/ha, applied to paddy water, visual rating after 13 to 14 days, scale 0 to 100 (0 no effect, 100 complete control)
Summary of the method: (§2)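 2-leaf plants; flood 3 cm above soil; compound dosed into paddy water; greenhouse 13–14 d; visual rating vs controls, 0–100 (100 = complete control); dash = not tested.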

kochia [7] = assay: Test C preemergence; type: in vivo, Bassia scoparia; conditions: for Kochia plant response rating: preemergence; for Plant response rating, Kochia: Preemergence
Summary of the method: as §1

ragweed [8] = assay: Test C preemergence; type: in vivo, Ambrosia artemisiifolia; conditions: for Ragweed plant response rating: preemergence; for Plant response rating, Ragweed: Preemergence
Summary of the method: as §1

kochia [9] = assay: Test C postemergence; type: in vivo, Bassia scoparia; conditions: 10 days
Summary of the method: as §1

corn [10] = assay: Test C preemergence; type: in vivo, Zea mays; conditions: for Corn plant response rating: preemergence; for Plant response rating, Corn: Preemergence
Summary of the method: as §1

wheat [11] = assay: Test C preemergence; type: in vivo, Triticum aestivum; conditions: for Wheat plant response rating: preemergence; for Plant response rating, Wheat: Preemergence
Summary of the method: as §1

ryegrass, Italian [12] = assay: Test C preemergence; type: in vivo, Lolium multiflorum; conditions: for Ryegrass, Italian plant response rating: preemergence; for Plant response rating, Ryegrass, Italian: Preemergence
Summary of the method: as §1

barnyardgrass [13] = assay: Test C postemergence; type: in vivo, Echinochloa crusgalli; conditions: 10 days
Summary of the method: as §1

blackgrass [14] = assay: Test C postemergence; type: in vivo, Alopecurus myosuroides; conditions: 10 days
Summary of the method: as §1

sedge, umbrella = assay: Test D flooded paddy test; type: in vivo, Cyperus difformis; conditions: 250 g ai/ha, applied to paddy water, visual rating after 13 to 14 days, scale 0 to 100 (0 no effect, 100 complete control)
Summary of the method: as §2

blackgrass [15] = assay: Test C preemergence; type: in vivo, Alopecurus myosuroides; conditions: for Blackgrass plant response rating: preemergence; for Plant response rating, Blackgrass: Preemergence
Summary of the method: as §1

ryegrass, Italian [16] = assay: Test C postemergence; type: in vivo, Lolium multiflorum; conditions: 10 days
Summary of the method: as §1

ragweed [17] = assay: Test C postemergence; type: in vivo, Ambrosia artemisiifolia; conditions: 10 days
Summary of the method: as §1

oat, wild [18] = assay: Test C preemergence; type: in vivo, Avena fatua; conditions: for Oat, Wild plant response rating: preemergence; for Plant response rating, Oat, Wild: Preemergence
Summary of the method: as §1

rice = assay: Test D flooded paddy test; type: in vivo, Oryza sativa; conditions: 250 g ai/ha, applied to paddy water, visual rating after 13 to 14 days, scale 0 to 100 (0 no effect, 100 complete control)
Summary of the method: as §2

soybean [19] = assay: Test C postemergence; type: in vivo, Glycine max; conditions: 10 days
Summary of the method: as §1

green foxtail [20] = assay: Test C preemergence; type: in vivo, Setaria viridis; conditions: for Foxtail, Green plant response rating: preemergence; for Plant response rating, Foxtail, Green: Preemergence
Summary of the method: as §1

horseweed = assay: Test C postemergence; type: in vivo, Erigeron canadensis; conditions: 10 days
Summary of the method: as §1

galium = assay: Test C postemergence; type: in vivo, Galium aparine; conditions: 10 days
Summary of the method: as §1

barnyardgrass [21] = assay: Test D flooded paddy test; type: in vivo, Echinochloa crus-galli; conditions: 250 g ai/ha, applied to paddy water, visual rating after 13 to 14 days, scale 0 to 100 (0 no effect, 100 complete control)
Summary of the method: as §2

soybean [22] = assay: Test C preemergence; type: in vivo, Glycine max; conditions: for Soybean plant response rating: preemergence; for Plant response rating, Soybean: Preemergence
Summary of the method: as §1

corn [23] = assay: Test C postemergence; type: in vivo, Zea mays; conditions: 10 days
Summary of the method: as §1

[24] = 500 g ai/ha, postemergence, 0 to 100 scale (0 no effect, 100 complete control)
[25] = Postemergence, 125 g ai/ha, 0 to 100 scale (0 no effect, 100 complete control)
[26] = 500 g ai/ha, 0 to 100 scale (0 no effect, 100 complete control)
[27] = 125 g ai/ha, 0 to 100 scale, 0 no effect, 100 complete control
[28] = 125 g ai/ha, postemergence, 0 to 100 scale, 0 no effect, 100 complete control
[29] = Postemergence, 500 g ai/ha, visual 0 to 100 scale (0 no effect, 100 complete control)
[30] = 500 g ai/ha, visual rating after 10 days, 0 to 100 scale (0 no effect, 100 complete control)
[31] = Test C, 125 g ai/ha, 0 to 100 scale (0 no effect, 100 complete control)

CCOCC1CN(C(=O)c2cc(-n3cnc(CC)n3)ccc2OC)c2cccc(Cl)c2O1 (centres unmarked) [Compound 378]
Plant response rating, Oat, Wild (oat, wild [1]; [24]): 30
Plant response rating, Oat, Wild (oat, wild [1]; [25]): 0
Plant response rating, Pigweed, Palmer (pigweed, palmer [2]; [24]): 100
Plant response rating, Pigweed, Palmer (pigweed, palmer [2]; [25]): 90
Barnyardgrass plant response rating (barnyardgrass [3]; [26]): 100
Plant response rating, Barnyardgrass (barnyardgrass [3]; [27]): 80
Plant response rating, Wheat (wheat [4]; [24]): 40
Plant response rating, Wheat (wheat [4]; [25]): 30
Pigweed, Palmer plant response rating (pigweed, palmer [5]; [26]): 100
Plant response rating, Pigweed, Palmer (pigweed, palmer [5]; [27]): 100
Plant response rating, Foxtail, Green (green foxtail [6]; [24]): 90
Plant response rating, Foxtail, Green (green foxtail [6]; [25]): 70
Plant response rating, Ducksalad (Flood) (ducksalad): 0
Kochia plant response rating (kochia [7]; [26]): 100
Plant response rating, Kochia (kochia [7]; [27]): 100
Ragweed plant response rating (ragweed [8]; [26]): 80
Plant response rating, Ragweed (ragweed [8]; [27]): 60
Plant response rating, Kochia (kochia [9]; [24]): 100
Plant response rating, Kochia (kochia [9]; [25]): 90
Corn plant response rating (corn [10]; [26]): 50
Plant response rating, Corn (corn [10]; [27]): 0
Wheat plant response rating (wheat [11]; [26]): 30
Plant response rating, Wheat (wheat [11]; [27]): 10
Ryegrass, Italian plant response rating (ryegrass, Italian [12]; [26]): 90
Plant response rating, Ryegrass, Italian (ryegrass, Italian [12]; [27]): 60
Plant response rating, Barnyardgrass (barnyardgrass [13]; [24]): 80
Plant response rating, Barnyardgrass (barnyardgrass [13]; [25]): 40
Plant response rating, Blackgrass (blackgrass [14]; [24]): 50
Plant response rating, Blackgrass (blackgrass [14]; [25]): 30
Plant response rating, Sedge, Umbrella (Flood) (sedge, umbrella): 0
Blackgrass plant response rating (blackgrass [15]; [26]): 50
Plant response rating, Blackgrass (blackgrass [15]; [27]): 10
Plant response rating, Ryegrass, Italian (ryegrass, Italian [16]; [24]): 60
Plant response rating, Ryegrass, Italian (ryegrass, Italian [16]; [25]): 20
Plant response rating, Ragweed (ragweed [17]; [24]): 90
Plant response rating, Ragweed (ragweed [17]; [25]): 70
Oat, Wild plant response rating (oat, wild [18]; [26]): 60
Plant response rating, Oat, Wild (oat, wild [18]; [27]): 20
Plant response rating, Rice (Flood) (rice): 0
Plant response rating, Soybean (soybean [19]; [24]): 100
Plant response rating, Soybean (soybean [19]; [25]): 100
Foxtail, Green plant response rating (green foxtail [20]; [26]): 100
Plant response rating, Foxtail, Green (green foxtail [20]; [27]): 90
Plant response rating, Horseweed (horseweed; [24]): 70
Plant response rating, Horseweed (horseweed; [25]): 10
Plant response rating, Galium (galium; [24]): 100
Plant response rating, Galium (galium; [25]): 90
Plant response rating, Barnyardgrass (Flood) (barnyardgrass [21]): 0
Soybean plant response rating (soybean [22]; [26]): 90
Plant response rating, Soybean (soybean [22]; [27]): 60
Plant response rating, Corn (corn [23]; [24]): 80
Plant response rating, Corn (corn [23]; [25]): 20

COC[C@H]1CN(C(=O)c2cc(-n3cnc(C(C)(C)C)n3)ccc2C)c2cccc(Cl)c2O1 [Compound 264]
Plant response rating, Oat, Wild (oat, wild [1]; [28]): 10
Plant response rating, Oat, Wild (oat, wild [1]; [29]): 50
Plant response rating, Pigweed, Palmer (pigweed, palmer [2]; [28]): 90
Plant response rating, Pigweed, Palmer (pigweed, palmer [2]; [29]): 90
Plant response rating, Barnyardgrass (barnyardgrass [3]; [30]): 100
Barnyardgrass plant response rating (barnyardgrass [3]; [31]): 70
Plant response rating, Wheat (wheat [4]; [28]): 20
Plant response rating, Wheat (wheat [4]; [29]): 30
Plant response rating, Pigweed, Palmer (pigweed, palmer [5]; [30]): 100
Pigweed, Palmer plant response rating (pigweed, palmer [5]; [31]): 100
Plant response rating, Foxtail, Green (green foxtail [6]; [28]): 20
Plant response rating, Foxtail, Green (green foxtail [6]; [29]): 90
Plant response rating, Ducksalad (Flood) (ducksalad): 75
Plant response rating, Kochia (kochia [7]; [30]): 100
Kochia plant response rating (kochia [7]; [31]): 90
Plant response rating, Ragweed (ragweed [8]; [30]): 80
Ragweed plant response rating (ragweed [8]; [31]): 60
Plant response rating, Kochia (kochia [9]; [28]): 80
Plant response rating, Kochia (kochia [9]; [29]): 100
Plant response rating, Corn (corn [10]; [30]): 50
Corn plant response rating (corn [10]; [31]): 30
Plant response rating, Wheat (wheat [11]; [30]): 60
Wheat plant response rating (wheat [11]; [31]): 0
Plant response rating, Ryegrass, Italian (ryegrass, Italian [12]; [30]): 90
Ryegrass, Italian plant response rating (ryegrass, Italian [12]; [31]): 90
Plant response rating, Barnyardgrass (barnyardgrass [13]; [28]): 50
Plant response rating, Barnyardgrass (barnyardgrass [13]; [29]): 90
Plant response rating, Blackgrass (blackgrass [14]; [28]): 40
Plant response rating, Blackgrass (blackgrass [14]; [29]): 60
Plant response rating, Sedge, Umbrella (Flood) (sedge, umbrella): 80
Plant response rating, Blackgrass (blackgrass [15]; [30]): 80
Blackgrass plant response rating (blackgrass [15]; [31]): 40
Plant response rating, Ryegrass, Italian (ryegrass, Italian [16]; [28]): 50
Plant response rating, Ryegrass, Italian (ryegrass, Italian [16]; [29]): 90
Plant response rating, Ragweed (ragweed [17]; [28]): 80
Plant response rating, Ragweed (ragweed [17]; [29]): 90
Plant response rating, Oat, Wild (oat, wild [18]; [30]): 90
Oat, Wild plant response rating (oat, wild [18]; [31]): 90
Plant response rating, Rice (Flood) (rice): 10
Plant response rating, Soybean (soybean [19]; [28]): 100
Plant response rating, Soybean (soybean [19]; [29]): 100
Plant response rating, Foxtail, Green (green foxtail [20]; [30]): 100
Foxtail, Green plant response rating (green foxtail [20]; [31]): 100
Plant response rating, Horseweed (horseweed; [28]): 20
Plant response rating, Horseweed (horseweed; [29]): 60
Plant response rating, Galium (galium; [28]): 100
Plant response rating, Galium (galium; [29]): 100
Plant response rating, Barnyardgrass (Flood) (barnyardgrass [21]): 35
Plant response rating, Soybean (soybean [22]; [30]): 80
Soybean plant response rating (soybean [22]; [31]): 90
Plant response rating, Corn (corn [23]; [28]): 30
Plant response rating, Corn (corn [23]; [29]): 80

Reference: US20260262643A1, “HERBICIDAL BENZOXAZINES” (FMC CORPORATION, priority 2022, published 2026)
